Laboratory results as given in article PMC11081522, “In silico identification of a novel Cdc2‐like kinase 2 (CLK2) inhibitor in triple negative breast cancer” (Protein Science : A Publication of the Protein Society, 2024).
Like-named read-outs stand apart in the source and are kept apart here.

Experiments:
Assay type in all cases: biochemical
[1] = biological target: T1, CLK2 (Cdc2-like kinase 2) (Homo sapiens, UniProt P49760); assay: Z'LYTE FRET peptide kinase assay
T1 construct: commercial enzyme of Thermo Fisher SelectScreen service
From the text: Z'LYTE FRET peptide kinase assay on CLK2 (Cdc2-like kinase 2)

[2] = biological target: T2, CLK3 (Homo sapiens, UniProt P49761); assay: kinase selectivity panel
T2 construct: kinase selectivity panel enzyme

[3] = biological target: T3, TTK (Threonine tyrosine kinase; Monopolar Spindle 1, Mps1) (Homo sapiens, UniProt P33981); assay: kinase selectivity panel
T3 construct: kinase selectivity panel enzyme
T3 sequence (P33981 1-857): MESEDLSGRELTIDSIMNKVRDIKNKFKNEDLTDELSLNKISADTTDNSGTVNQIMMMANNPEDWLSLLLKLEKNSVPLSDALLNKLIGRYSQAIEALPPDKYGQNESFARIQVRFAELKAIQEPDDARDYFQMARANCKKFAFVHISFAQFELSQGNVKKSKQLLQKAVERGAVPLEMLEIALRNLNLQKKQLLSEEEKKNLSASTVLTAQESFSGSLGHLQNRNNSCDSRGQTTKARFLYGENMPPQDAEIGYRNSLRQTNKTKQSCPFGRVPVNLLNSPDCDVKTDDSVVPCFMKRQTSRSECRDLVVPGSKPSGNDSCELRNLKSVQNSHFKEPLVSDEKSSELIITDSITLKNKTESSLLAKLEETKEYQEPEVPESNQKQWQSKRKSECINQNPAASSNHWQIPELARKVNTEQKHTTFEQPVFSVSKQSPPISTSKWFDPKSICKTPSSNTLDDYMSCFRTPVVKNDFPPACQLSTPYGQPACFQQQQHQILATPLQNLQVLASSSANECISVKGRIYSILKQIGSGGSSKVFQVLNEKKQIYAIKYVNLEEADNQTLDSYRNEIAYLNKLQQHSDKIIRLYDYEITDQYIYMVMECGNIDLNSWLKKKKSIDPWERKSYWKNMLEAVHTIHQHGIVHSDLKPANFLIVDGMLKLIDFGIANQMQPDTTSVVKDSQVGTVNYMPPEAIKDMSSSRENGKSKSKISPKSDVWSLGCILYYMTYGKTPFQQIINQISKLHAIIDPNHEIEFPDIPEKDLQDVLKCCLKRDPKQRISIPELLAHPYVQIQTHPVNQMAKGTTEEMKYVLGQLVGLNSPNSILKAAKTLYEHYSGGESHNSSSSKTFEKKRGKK

T1 sequence (P49760 whole entry): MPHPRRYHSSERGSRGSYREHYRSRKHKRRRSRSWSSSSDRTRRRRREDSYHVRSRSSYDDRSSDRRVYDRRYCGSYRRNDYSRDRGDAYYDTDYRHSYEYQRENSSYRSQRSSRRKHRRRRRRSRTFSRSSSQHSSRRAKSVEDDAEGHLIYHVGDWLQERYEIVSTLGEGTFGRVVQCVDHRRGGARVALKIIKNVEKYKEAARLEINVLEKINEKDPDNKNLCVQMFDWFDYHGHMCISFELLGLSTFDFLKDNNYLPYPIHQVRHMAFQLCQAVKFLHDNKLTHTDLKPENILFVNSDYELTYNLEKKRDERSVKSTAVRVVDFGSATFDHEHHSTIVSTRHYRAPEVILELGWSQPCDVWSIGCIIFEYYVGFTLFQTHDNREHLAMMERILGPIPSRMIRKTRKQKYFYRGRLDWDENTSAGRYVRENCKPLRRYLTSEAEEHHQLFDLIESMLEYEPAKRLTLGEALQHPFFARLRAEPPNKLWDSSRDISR
T2 sequence (P49761 whole entry): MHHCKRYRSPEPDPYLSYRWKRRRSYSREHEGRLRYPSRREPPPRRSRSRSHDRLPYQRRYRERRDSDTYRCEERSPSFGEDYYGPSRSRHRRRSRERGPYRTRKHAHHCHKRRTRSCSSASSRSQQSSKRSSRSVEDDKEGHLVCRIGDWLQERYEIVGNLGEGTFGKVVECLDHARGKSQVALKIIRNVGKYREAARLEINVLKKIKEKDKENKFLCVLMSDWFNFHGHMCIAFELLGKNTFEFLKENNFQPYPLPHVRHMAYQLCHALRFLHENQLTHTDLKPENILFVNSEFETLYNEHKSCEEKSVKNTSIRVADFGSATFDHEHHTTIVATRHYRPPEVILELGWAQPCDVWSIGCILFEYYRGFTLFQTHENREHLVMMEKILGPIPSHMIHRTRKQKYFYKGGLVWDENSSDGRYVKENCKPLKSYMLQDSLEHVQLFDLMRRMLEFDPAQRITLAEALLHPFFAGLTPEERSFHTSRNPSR

Compound	IC50 ([1]; ATP and peptide substrate, 1% DMSO, room temperature, 60 min)	IC50 [1]	inhibition at 1 µM [2]	inhibition at 1 µM [3]
CSc1nc(Cl)cc(Sc2nc(N)nc3nc[nH]c23)n1 [compound 51564, 51564]	1330 nM			
Nc1ncnc2oc(-c3ccccc3)c(-c3ccccc3)c12 [compound 153298, 153298]		2240 nM		
CC(c1ccccc1)n1c2ccccc2c2c(N)ncnc21 (centres unmarked) [compound 670551, Compound 670551]		620 nM	46%	43%
